Source: patent US20230310634A1, “ANTI-HUMAN VISTA ANTIBODIES AND USE THEREOF” (IMMUNEXT, INC., priority 2020, published 2023)
Entries after “also recorded” stand apart in the source; their conditions may differ. Counter-ions that a name gives are not always drawn.

Test system: LPS stimulated human PBMCs
Assay: In vitro potency of steroid payloads in LPS stimulated human PBMCs (IL-1β, IL-6 ELISA)
Assay type: cell-based
Details: for impact of halogenation of the steroid ring on potency: compared with INX-SM-3; for IL-1β and IL-6 production / IL-1β production / potency relative to the other compounds of the experiment: 1 ng/mL LPS, 24 hr
[1] = Experiment 1, 1000-1 nM, n=1 donor
[2] = Experiment 3, 1000-0.2 nM, n=2 donors
[3] = Experiment 5, 1000-0.5 nM, n=1 donor
[4] = Experiment 2, 1000-1 nM, n=1 donor

SMILES: C[C@]12C=CC(=O)C=C1[C@@H](F)C[C@H]1[C@@H]3C[C@H]4O[C@H](c5ccc(CC67CC(N)(C6)C7)cc5)O[C@@]4(C(=O)CO)[C@@]3(C)C[C@H](O)[C@@]12F [INX-SM-74, (2S,6aS,6bR,7S,8aS,8bS,10S,11aR,12aS,12bS)-10-(4-((3-aminobicyclo[1.1.1]pentan-1-yl)methyl)phenyl)-2,6b-difluoro-7-hydroxy-8b-(2-hydroxyacetyl)-6a,8a-dimethyl-1,2,6a,6b,7,8,8a,8b,11a,12,12a,12b-dodecahydro-4H-naphtho[2′,1′:4,5]indeno[1,2-d][1,3]dioxol-4-one]
- steroid potency as free payloads in LPS-activated human PBMCS (conclusions): varying degrees of dose dependent steroid potency; also recorded: moderate potency
- impact of halogenation of the steroid ring on potency (Experiment 6, 1000-0.16 nM): dose dependent potency

SMILES: C[C@]12C=CC(=O)C=C1[C@@H](F)C[C@H]1[C@@H]3C[C@H]4O[C@@H](c5ccc(CC67CC(N)(C6)C7)cc5)O[C@@]4(C(=O)CO)[C@@]3(C)C[C@H](O)[C@@]12F [INX-SM-24, (2S,6aS,6bR,7S,8aS,8bS,10R,11aR,12aS,12bS)-10-(4-((3-aminobicyclo[1.1.1]pentan-1-yl)methyl)phenyl)-2,6b-difluoro-7-hydroxy-8b-(2-hydroxyacetyl)-6a,8a-dimethyl-1,2,6a,6b,7,8,8a,8b,11a,12,12a,12b-dodecahydro-4H-naphtho[2′,1′:4,5]indeno[1,2-d][1,3]dioxol-4-one]
- steroid potency as free payloads in LPS-activated human PBMCS (conclusions): varying degrees of dose dependent steroid potency
- impact of halogenation of the steroid ring on potency (Experiment 6, 1000-0.16 nM): increased potency over the non-fluorinated INX-SM-3

SMILES: C[C@]12C=CC(=O)C=C1CC[C@@H]1[C@@H]2[C@@H](O)C[C@@]2(C)[C@H]1C[C@H]1O[C@H](C34CC(Cc5cccc(N)c5)(C3)C4)O[C@]12C(=O)CO [INX-SM-54, (6aR,6bS,7S,8aS,8bS,10S,11aR,12aS,12bS)-10-(3-(3-aminobenzyl)bicyclo[1.1.1]pentan-1-yl)-7-hydroxy-8b-(2-hydroxyacetyl)-6a,8a-dimethyl-1,2,6a,6b,7,8,8a,8b,11a,12,12a,12b-dodecahydro-4H-naphtho[2′,1′:4,5]indeno[1,2-d][1,3]dioxol-4-one]
- steroid potency as free payloads in LPS-activated human PBMCS (conclusions): did not show potency
- IL-1β and IL-6 production [1]: did not show inhibition

SMILES: C[C@]12C=CC(=O)C=C1CC[C@@H]1[C@@H]2[C@@H](O)C[C@@]2(C)[C@H]1C[C@H]1O[C@@H](c3ccc(Cc4ncc(N)s4)cc3)O[C@]12C(=O)CO [INX-SM-7, (6aR,6bS,7S,8aS,8bS,10R,11aR,12aS,12bS)-10-(4-((5-aminothiazol-2-yl)methyl)phenyl)-7-hydroxy-8b-(2-hydroxyacetyl)-6a,8a-dimethyl-1,2,6a,6b,7,8,8a,8b,11a,12,12a,12b-dodecahydro-4H-naphtho[2′,1′:4,5]indeno[1,2-d][1,3]dioxol-4-one]
- steroid potency as free payloads in LPS-activated human PBMCS (conclusions): varying degrees of dose dependent steroid potency
- IL-1β production (Experiment 6, 1000-0.16 nM, n=1): dose-dependent inhibition

SMILES: C[C@@]12CCC3=CC(=O)C=C[C@]3(C)[C@H]1[C@@H](O)C[C@@]1(C)[C@H]2C[C@H]2O[C@@H](c3ccc(CC45C6C7C4C4C5C6C74N)cc3)O[C@]21C(=O)CO (stereo partly drawn) [INX-SM-9, (6aR,6bS,7S,8aS,8bS,10R,11aR,12aS,12bS)-10-(4-((4-aminocuban-1-yl)methyl)phenyl)-7-hydroxy-8b-(2-hydroxyacetyl)-6a,8a-dimethyl-1,2,6a,6b,7,8,8a,8b,11a,12,12a,12b-dodecahydro-4H-naphtho[2′,1′:4,5]indeno[1,2-d][1,3]dioxol-4-one]
- steroid potency as free payloads in LPS-activated human PBMCS (conclusions): varying degrees of dose dependent steroid potency
- IL-1β production [2]: dose dependent inhibition

SMILES: C[C@]12C=CC(=O)C=C1CC[C@@H]1[C@@H]2[C@@H](O)C[C@@]2(C)[C@H]1C[C@H]1O[C@@H](c3ccc(CC4(N)COC4)cc3)O[C@]12C(=O)CO [INX-SM-33, (6aR,6bS,7S,8aS,8bS,10R,11aR,12aS,12bS)-10-(4-((3-aminooxetan-3-yl)methyl)phenyl)-7-hydroxy-8b-(2-hydroxyacetyl)-6a,8a-dimethyl-1,2,6a,6b,7,8,8a,8b,11a,12,12a,12b-dodeca hydro-4H-naphtho[2′,1′:4,5]indeno[1,2-d][1,3]dioxol-4-one]
- steroid potency as free payloads in LPS-activated human PBMCS (conclusions): varying degrees of dose dependent steroid potency; also recorded: lowest potency among the R stereoisomers
- potency relative to the other compounds of the experiment: least potent compound among these compounds tested
- IL-1β and IL-6 production [3]: dose dependent inhibition; also recorded: modest inhibition

SMILES: C[C@]12C=CC(=O)C=C1CC[C@@H]1[C@@H]2[C@@H](O)C[C@@]2(C)[C@H]1C[C@H]1O[C@@H](c3ccc(CC4COC5(CNC5)C4)cc3)O[C@]12C(=O)CO (stereo partly drawn) [INX-SM-31, (6aR,6bS,7S,8aS,8bS,11aR,12aS,12bS)-10-(4-((5-oxa-2-azaspiro[3.4]octan-7-yl)methyl)phenyl)-7-hydroxy-8b-(2-hydroxyacetyl)-6a,8a-dimethyl-1,2,6a,6b,7,8,8a,8b,11a,12,12a,12b-dodecahydro-4H-naphtho[2′,1′:4,5]indeno[1,2-d][1,3]dioxol-4-one]
- steroid potency as free payloads in LPS-activated human PBMCS (conclusions): varying degrees of dose dependent steroid potency; also recorded: lowest potency among the R stereoisomers
- potency relative to the other compounds of the experiment: least potent compound among these compounds tested
- IL-1β production [2]: dose dependent inhibition

SMILES: C[C@]12C=CC(=O)C=C1CC[C@@H]1[C@@H]2[C@@H](O)C[C@@]2(C)[C@H]1C[C@H]1O[C@@H](c3ccc(Cc4cnc(N)s4)cc3)O[C@]12C(=O)CO [INX-SM-1, (6aR,6bS,7S,8aS,8bS,10R,11aR,12aS,12bS)-10-(4-((2-aminothiazol-5-yl)methyl)phenyl)-7-hydroxy-8b-(2-hydroxyacetyl)-6a,8a-dimethyl-1,2,6a,6b,7,8,8a,8b,11a,12,12a,12b-dodecahydro-4H-naphtho[2′,1′:4,5]indeno[1,2-d][1,3]dioxol-4-one AcOH salt]
- steroid potency as free payloads in LPS-activated human PBMCS (conclusions): varying degrees of dose dependent steroid potency
- IL-1β and IL-6 production [1]: inhibit both IL-1β and IL-6 production
- IL-1β production [4]: show inhibition in IL-1β production

SMILES: C[C@]12C=CC(=O)C=C1CC[C@@H]1[C@@H]2[C@@H](O)C[C@@]2(C)[C@H]1C[C@H]1O[C@@H](C34CC(Cc5cccc(N)c5)(C3)C4)O[C@]12C(=O)CO [INX-SM-4, (6aR,6bS,7S,8aS,8bS,10R,11aR,12aS,12bS)-10-(3-(3-aminobenzyl)bicyclo[1.1.1]pentan-1-yl)-7-hydroxy-8b-(2-hydroxyacetyl)-6a,8a-dimethyl-1,2,6a,6b,7,8,8a,8b,11a,12,12a,12b-dodecahydro-4H-naphtho[2′,1′:4,5]indeno[1,2-d][1,3]dioxol-4-one]
- steroid potency as free payloads in LPS-activated human PBMCS (conclusions): varying degrees of dose dependent steroid potency
- IL-1β and IL-6 production [1]: inhibit both IL-1β and IL-6 production
- IL-1β production [4]: show inhibition in IL-1β production

SMILES: C[C@]12C=CC(=O)C=C1CC[C@H]1[C@@H]3C[C@H]4O[C@@H](c5ccc(CC67CC(N)(C6)C7)cc5)O[C@@]4(C(=O)CO)[C@@]3(C)C[C@H](O)[C@@]12F [INX-SM-13, (6aS,6bR,7S,8aS,8bS,10R,11aR,12aS,12bS)-10-(4-((3-aminobicyclo[1.1.1]pentan-1-yl)methyl)phenyl)-6b-fluoro-7-hydroxy-8b-(2-hydroxyacetyl)-6a,8a-dimethyl-1,2,6a,6b,7,8,8a,8b,11a,12,12a,12b-dodecahydro-4H-naphtho[2′,1′:4,5]indeno[1,2-d][1,3]dioxol-4-one]
- steroid potency as free payloads in LPS-activated human PBMCS (conclusions): varying degrees of dose dependent steroid potency
- impact of halogenation of the steroid ring on potency (Experiment 6, 1000-0.16 nM): did not lead to increased potency

SMILES: C[C@@]12CCC3=CC(=O)C=C[C@]3(C)[C@H]1[C@@H](O)C[C@@]1(C)[C@H]2C[C@H]2O[C@@H](c3ccc(CC4CC5(CC(N)C5)C4)cc3)O[C@]21C(=O)CO (stereo partly drawn) [INX-SM-32, (6aR,6bS,7S,8aS,8bS,11aR,12aS,12bS)-10-(4-((6-aminospiro[3.3]heptan-2-yl)methyl)phenyl)-7-hydroxy-8b-(2-hydroxyacetyl)-6a,8a-dimethyl-1,2,6a,6b,7,8,8a,8b,11a,12,12a,12b-dodecahydro-4H-naphtho[2′,1′:4,5]indeno[1,2-d][1,3]dioxol-4-one]
- steroid potency as free payloads in LPS-activated human PBMCS (conclusions): varying degrees of dose dependent steroid potency
- IL-1β and IL-6 production (Experiment 4, 500-1 nM, n=2): dose dependent inhibition in IL-1β and IL-6 production

SMILES: C[C@]12C=CC(=O)C=C1CC[C@@H]1[C@@H]2[C@@H](O)C[C@@]2(C)[C@H]1C[C@H]1O[C@@H](c3ccc(CC45CCC(N)(CC4)CC5)cc3)O[C@]12C(=O)CO [INX-SM-10, (6aR,6bS,7S, 8aS,8bS,11aR,12aS,12bS)-10-(4-((4-aminobicyclo [2.2.2]octan-1-yl)methyl)phenyl)-7-hydroxy-8b-(2-hydroxyacetyl)-6a,8a-dimethyl-1,2,6a,6b,7,8,8a,8b,11a,12,12a,12b-dodecahydro-4H-naphtho[2′,1′:4,5]indeno[1,2-d][1,3]dioxol-4-one]
- steroid potency as free payloads in LPS-activated human PBMCS (conclusions): varying degrees of dose dependent steroid potency
- IL-1β and IL-6 production [3]: dose dependent inhibition; also recorded: robust inhibition

SMILES: C[C@]12C=CC(=O)C=C1CC[C@@H]1[C@@H]2[C@@H](O)C[C@@]2(C)[C@H]1C[C@H]1O[C@@H](c3cnc(Cc4cccc(N)c4)s3)O[C@]12C(=O)CO [INX-SM-6, (6aR,6bS,7S, 8aS,8bS,10R,11aR,12aS,12bS)-10-(2-(3-aminobenzyl)thiazol-5-yl)-7-hydroxy-8b-(2-hydroxyacetyl)-6a,8a-dimethyl-1,2,6a,6b,7,8,8a,8b, 11a,12,12a,12b-dodecahydro-4H-naphtho[2′,1′:4,5]indeno[1,2-d][1,3]dioxol-4-one]
- steroid potency as free payloads in LPS-activated human PBMCS (conclusions): varying degrees of dose dependent steroid potency
- IL-1β production [4]: show inhibition in IL-1β production
